pIC50: −log10 of the molar value.
Experiments:
Type in all cases: cell-based
[1] = biological target: T1, EGFR exon 20 FQEA Ins A763_V764 (Ba/F3 cells) (Homo sapiens, UniProt P00533, INS763FQEA); test: Inhibitor activity on EGFR-dependent cell growth (CellTiter-Glo, 72 h), Ba/F3 EGFR exon 20 FQEA Ins; conditions: read-out: BaF3 FQEA IC50
T1 construct: expressed in transfected cells; host or cells: Ba/F3 (murine pro-B cells), retroviral transduction, puromycin selection, IL3-independent pool
In short: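 For each mutant line, growth depends on EGFR signalling in the absence of IL3. Density per well: 400 for L858R, 600 for the C797S double mutant, 800 for exon 19del and FQEA. Ten threefold dilutions were applied for 72 h. %Inhibition = 100×(DMSO − sample)/(DMSO − medium blank).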

[2] = biological target: T2, EGFR exon 20 SVD Ins D770_N771 (Ba/F3 cells) (Homo sapiens, UniProt P00533, INS770SVD); test: Inhibitor activity on EGFR-dependent cell growth (CellTiter-Glo, 72 h), Ba/F3 EGFR exon 20 SVD Ins; conditions: read-out: BaF3 SVD IC50
T2 construct: expressed in transfected cells; host or cells: Ba/F3 (murine pro-B cells), retroviral transduction, puromycin selection, IL3-independent pool
In short: (§1)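 IC50s derive from a sigmoidal dose–response fit of CellTiter-Glo signal. The signal was normalised between […]-treated cells and cell-free medium. Ba/F3 mutant-EGFR cells, seeded at 400–800/well depending on the line, had 72 h of exposure to a 10-point, 3-fold compound series.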

EGFR WT (Ba/F3 cells) = biological target: T3, EGFR WT (Ba/F3 cells) (Homo sapiens, UniProt P00533); test: Inhibitor activity on EGFR-dependent cell growth (CellTiter-Glo, 72 h), Ba/F3 EGFR WT; conditions: read-out: BaF3 WT IC50
T3 construct: expressed in transfected cells; host or cells: Ba/F3 (murine pro-B cells), retroviral transduction, puromycin selection, maintained with EGF
In short: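 This growth assay used Ba/F3 cells that depend on wild-type EGFR and are kept in EGF without IL3. Compounds were made up as 10 mM DMSO stocks and diluted 3-fold over 10 points. 120 nL went onto 600 cells/well. After 72 hours, 40 μL CellTiter-Glo was added and luminescence read on EnVision after 30 min.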

[3] = biological target: T4, EGFR exon 20 ASV Ins V769_D770 (Ba/F3 cells) (Homo sapiens, UniProt P00533, INS769ASV); test: Inhibitor activity on EGFR-dependent cell growth (CellTiter-Glo, 72 h), Ba/F3 EGFR exon 20 ASV Ins; conditions: read-out: BaF3 ASV IC50
T4 construct: expressed in transfected cells; host or cells: Ba/F3 (murine pro-B cells), retroviral transduction, puromycin selection, IL3-independent pool
In short: as §1

T1 sequence (P00533 with tags, fused parts or gaps INS763FQEA): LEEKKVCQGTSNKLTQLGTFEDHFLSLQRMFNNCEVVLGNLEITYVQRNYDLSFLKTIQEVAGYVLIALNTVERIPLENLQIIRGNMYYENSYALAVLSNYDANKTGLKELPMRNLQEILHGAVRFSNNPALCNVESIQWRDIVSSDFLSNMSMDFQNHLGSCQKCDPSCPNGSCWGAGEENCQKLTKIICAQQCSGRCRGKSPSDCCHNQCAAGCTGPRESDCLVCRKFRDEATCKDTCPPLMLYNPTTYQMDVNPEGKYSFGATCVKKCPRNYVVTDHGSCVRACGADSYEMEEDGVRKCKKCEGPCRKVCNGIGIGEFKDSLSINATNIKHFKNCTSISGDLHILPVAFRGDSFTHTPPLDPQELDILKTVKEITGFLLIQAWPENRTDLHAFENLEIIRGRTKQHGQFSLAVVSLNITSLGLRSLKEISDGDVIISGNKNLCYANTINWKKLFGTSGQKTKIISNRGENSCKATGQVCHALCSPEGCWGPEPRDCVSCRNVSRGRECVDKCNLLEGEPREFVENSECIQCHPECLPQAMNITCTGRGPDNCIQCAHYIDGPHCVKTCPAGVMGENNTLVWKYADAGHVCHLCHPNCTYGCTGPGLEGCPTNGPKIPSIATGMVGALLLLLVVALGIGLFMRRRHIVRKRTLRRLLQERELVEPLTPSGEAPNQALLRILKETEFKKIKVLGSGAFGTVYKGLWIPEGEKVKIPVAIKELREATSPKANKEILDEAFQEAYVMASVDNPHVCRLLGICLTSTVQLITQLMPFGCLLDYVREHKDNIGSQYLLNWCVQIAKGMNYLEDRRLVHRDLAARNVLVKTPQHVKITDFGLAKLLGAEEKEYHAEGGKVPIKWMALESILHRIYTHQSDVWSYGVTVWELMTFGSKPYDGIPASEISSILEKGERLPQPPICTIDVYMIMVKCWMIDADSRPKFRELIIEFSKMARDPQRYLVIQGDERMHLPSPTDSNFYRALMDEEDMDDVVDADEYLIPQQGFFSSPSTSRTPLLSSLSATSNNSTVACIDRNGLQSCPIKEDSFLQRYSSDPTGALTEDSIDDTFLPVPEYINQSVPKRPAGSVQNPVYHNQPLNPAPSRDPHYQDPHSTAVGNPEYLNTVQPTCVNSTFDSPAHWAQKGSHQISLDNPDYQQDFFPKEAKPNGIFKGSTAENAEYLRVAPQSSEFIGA
T2 sequence (P00533 with tags, fused parts or gaps INS770SVD): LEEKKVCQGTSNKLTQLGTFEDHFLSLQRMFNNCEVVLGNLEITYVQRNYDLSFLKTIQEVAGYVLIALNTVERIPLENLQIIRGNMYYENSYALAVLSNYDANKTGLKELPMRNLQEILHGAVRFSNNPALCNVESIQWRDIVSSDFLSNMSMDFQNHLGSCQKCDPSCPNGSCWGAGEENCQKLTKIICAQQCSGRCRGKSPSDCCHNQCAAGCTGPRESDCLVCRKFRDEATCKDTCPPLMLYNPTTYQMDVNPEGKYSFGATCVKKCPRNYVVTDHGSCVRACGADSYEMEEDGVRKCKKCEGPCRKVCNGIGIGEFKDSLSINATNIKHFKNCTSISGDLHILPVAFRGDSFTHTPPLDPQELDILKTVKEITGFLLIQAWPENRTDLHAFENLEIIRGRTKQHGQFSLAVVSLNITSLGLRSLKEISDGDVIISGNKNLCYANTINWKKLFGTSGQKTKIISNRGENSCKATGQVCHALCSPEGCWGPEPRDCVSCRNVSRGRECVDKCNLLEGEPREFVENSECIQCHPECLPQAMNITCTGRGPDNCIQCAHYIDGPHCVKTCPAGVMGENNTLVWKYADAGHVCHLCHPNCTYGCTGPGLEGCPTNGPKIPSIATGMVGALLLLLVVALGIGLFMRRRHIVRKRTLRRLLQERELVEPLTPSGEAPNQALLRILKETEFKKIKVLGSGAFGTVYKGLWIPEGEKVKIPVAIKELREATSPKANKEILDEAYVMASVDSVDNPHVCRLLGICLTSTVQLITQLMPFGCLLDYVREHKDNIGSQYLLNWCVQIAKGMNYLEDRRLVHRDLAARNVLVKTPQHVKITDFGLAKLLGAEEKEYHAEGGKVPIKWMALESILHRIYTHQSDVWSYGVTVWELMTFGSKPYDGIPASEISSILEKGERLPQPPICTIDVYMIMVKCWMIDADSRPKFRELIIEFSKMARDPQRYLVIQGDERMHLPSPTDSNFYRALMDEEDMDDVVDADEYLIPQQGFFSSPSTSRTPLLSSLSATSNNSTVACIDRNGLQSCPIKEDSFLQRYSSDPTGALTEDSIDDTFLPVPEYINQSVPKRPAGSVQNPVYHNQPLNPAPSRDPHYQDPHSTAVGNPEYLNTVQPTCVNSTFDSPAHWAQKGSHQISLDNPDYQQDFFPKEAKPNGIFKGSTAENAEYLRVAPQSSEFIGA
T3 sequence (P00533 25-1210): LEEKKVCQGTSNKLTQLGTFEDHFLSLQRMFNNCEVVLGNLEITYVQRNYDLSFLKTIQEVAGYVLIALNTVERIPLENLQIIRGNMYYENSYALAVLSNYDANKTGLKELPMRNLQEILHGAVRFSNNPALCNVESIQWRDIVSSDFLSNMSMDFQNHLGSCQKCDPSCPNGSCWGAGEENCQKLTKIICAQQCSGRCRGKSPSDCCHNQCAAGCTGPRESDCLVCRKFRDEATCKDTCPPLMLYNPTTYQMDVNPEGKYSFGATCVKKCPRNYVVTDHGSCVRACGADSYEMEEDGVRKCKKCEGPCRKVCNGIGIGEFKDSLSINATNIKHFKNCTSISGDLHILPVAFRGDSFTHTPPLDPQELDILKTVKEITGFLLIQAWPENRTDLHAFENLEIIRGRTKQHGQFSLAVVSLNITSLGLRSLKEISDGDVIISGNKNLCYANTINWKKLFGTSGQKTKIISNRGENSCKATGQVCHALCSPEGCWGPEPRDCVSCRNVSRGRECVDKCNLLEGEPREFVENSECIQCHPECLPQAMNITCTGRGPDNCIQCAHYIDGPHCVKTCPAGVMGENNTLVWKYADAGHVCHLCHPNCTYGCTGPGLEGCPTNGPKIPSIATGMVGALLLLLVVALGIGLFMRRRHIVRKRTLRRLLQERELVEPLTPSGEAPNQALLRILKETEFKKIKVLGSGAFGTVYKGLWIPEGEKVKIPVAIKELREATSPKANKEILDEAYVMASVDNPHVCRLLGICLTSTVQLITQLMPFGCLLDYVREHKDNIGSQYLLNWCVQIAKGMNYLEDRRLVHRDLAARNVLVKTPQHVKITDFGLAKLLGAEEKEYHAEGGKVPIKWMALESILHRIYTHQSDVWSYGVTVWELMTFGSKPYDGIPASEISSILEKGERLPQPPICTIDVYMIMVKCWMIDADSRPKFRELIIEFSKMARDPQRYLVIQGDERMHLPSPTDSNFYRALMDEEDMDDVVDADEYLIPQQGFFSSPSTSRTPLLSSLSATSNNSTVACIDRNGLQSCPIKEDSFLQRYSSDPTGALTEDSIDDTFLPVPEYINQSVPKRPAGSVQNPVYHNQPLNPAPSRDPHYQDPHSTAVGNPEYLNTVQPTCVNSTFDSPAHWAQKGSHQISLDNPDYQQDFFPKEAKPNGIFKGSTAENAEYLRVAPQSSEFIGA
T4 sequence (P00533 with tags, fused parts or gaps INS769ASV): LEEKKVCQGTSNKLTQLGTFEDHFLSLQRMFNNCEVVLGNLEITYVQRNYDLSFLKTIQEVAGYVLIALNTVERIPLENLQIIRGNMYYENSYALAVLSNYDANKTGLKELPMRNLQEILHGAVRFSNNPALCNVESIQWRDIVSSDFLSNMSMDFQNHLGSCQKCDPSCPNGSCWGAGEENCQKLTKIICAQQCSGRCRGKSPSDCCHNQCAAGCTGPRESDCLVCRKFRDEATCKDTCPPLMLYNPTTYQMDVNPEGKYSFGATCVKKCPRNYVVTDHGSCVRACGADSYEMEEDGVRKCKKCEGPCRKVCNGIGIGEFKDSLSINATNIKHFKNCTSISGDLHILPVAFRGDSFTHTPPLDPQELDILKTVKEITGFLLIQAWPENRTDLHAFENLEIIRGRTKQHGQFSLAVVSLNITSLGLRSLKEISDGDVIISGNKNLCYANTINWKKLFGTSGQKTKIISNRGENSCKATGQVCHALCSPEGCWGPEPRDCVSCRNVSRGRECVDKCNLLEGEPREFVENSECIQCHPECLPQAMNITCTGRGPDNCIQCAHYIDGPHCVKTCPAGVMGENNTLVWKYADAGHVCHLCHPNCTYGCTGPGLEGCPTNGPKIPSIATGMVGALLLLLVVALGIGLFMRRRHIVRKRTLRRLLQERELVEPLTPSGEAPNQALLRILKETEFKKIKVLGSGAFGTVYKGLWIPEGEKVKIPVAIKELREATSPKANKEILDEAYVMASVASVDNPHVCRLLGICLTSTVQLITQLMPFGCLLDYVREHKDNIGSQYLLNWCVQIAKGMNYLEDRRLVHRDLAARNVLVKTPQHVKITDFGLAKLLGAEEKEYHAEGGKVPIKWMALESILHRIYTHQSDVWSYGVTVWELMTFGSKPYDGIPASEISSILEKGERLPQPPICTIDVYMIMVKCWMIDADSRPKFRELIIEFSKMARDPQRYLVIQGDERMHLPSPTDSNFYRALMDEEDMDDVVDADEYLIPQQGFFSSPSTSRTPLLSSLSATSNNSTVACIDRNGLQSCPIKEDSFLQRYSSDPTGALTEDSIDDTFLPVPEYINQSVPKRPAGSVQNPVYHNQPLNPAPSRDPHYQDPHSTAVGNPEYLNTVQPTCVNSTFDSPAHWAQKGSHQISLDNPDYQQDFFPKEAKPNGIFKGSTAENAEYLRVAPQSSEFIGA

Row | pIC50 [1] | pIC50 [2] | pIC50 (EGFR WT (Ba/F3 cells)) | pIC50 [3] | Compound
1 | > 7.00 | > 7.00 | 6.00 to 7.00 | > 7.00 | COc1c(Cl)cccc1Nc1c(-c2ccnc(Nc3ccc(N4CCN(C)CC4)nc3)n2)[nH]c2c1C(=O)NCC2 [compound 518, 3-[(3-chloro-2-methoxyphenyl)amino]-2-(2-{[6-(4-methylpiperazin-1-yl)pyridin-3-yl]amino}pyrimidin-4-yl)-1H,5H,6H,7H-pyrrolo[3,2-c]pyridin-4-one]
2 | > 7.00 | 6.00 to 7.00 | 6.00 to 7.00 | 6.00 to 7.00 | C=CC(=O)N1CC[C@]2(CNC(=O)c3c2[nH]c(-c2ccncc2F)c3Nc2cccc(Cl)c2OC)C1 [compound 520]
3 | 6.00 to 7.00 | 6.00 to 7.00 | < 6.00 | 6.00 to 7.00 | C=CC(=O)N1CC[C@@]2(CNC(=O)c3c2[nH]c(-c2ccncc2F)c3Nc2cccc(Cl)c2OC)C1 [compound 521]
4 | 6.00 to 7.00 | 6.00 to 7.00 | < 6.00 | 6.00 to 7.00 | COc1c(Cl)cccc1Nc1c(-c2ccnc(-c3ccn(C)n3)n2)[nH]c2c1C(=O)NCC2 [compound 544, 3-[(3-chloro-2-methoxyphenyl)amino]-2-[2-(1-methylpyrazol-3-yl)pyrimidin-4-yl]-1H,5H,6H,7H-pyrrolo[3,2-c]pyridin-4-one]
5 | > 7.00 | > 7.00 | > 7.00 | > 7.00 | COc1c(Cl)cccc1Nc1c(-c2ccnc3ccc(OC4CC4)nc23)[nH]c2c1C(=O)NCC2 [compound 677, 3-[(3-chloro-2-methoxyphenyl)amino]-2-(6-cyclopropoxy-1,5-naphthyridin-4-yl)-1H,5H,6H,7H-pyrrolo[3,2-c]pyridin-4-one]
6 | < 6.00 | < 6.00 | < 6.00 | < 6.00 | COc1c(Cl)cccc1Nc1c(-c2ccnc(NC3CCOCC3)n2)[nH]c2c1C(=O)NCC2 [compound 708, 3-((3-chloro-2-methoxyphenyl)amino)-2-(2-((tetrahydro-2H-pyran-4-yl)amino)pyrimidin-4-yl)-1,5,6,7-tetrahydro-4H-pyrrolo[3,2-c]pyridin-4-one]
7 | < 6.00 | < 6.00 | < 6.00 | < 6.00 | COc1c(Cl)cccc1Nc1c(-c2ccnc(NC[C@H]3CCO3)n2)[nH]c2c1C(=O)NCC2 [compound 720]
8 | < 6.00 | < 6.00 | < 6.00 | 6.00 to 7.00 | COc1c(Cl)cccc1Nc1c(-c2ccnc(NC[C@H]3COCCO3)n2)[nH]c2c1C(=O)NCC2 [compound 723, 3-[(3-chloro-2-methoxyphenyl)amino]-2-(2-[[(2S)-1,4-dioxan-2-ylmethyl]amino]pyrimidin-4-yl)-1H,5H,6H,7H-pyrrolo[3,2-c]pyridin-4-one]
9 | < 6.00 | 6.00 to 7.00 | < 6.00 | 6.00 to 7.00 | COc1c(Cl)cccc1Nc1c(-c2ccnc(NC[C@@H]3COCCO3)n2)[nH]c2c1C(=O)NCC2 [compound 724, 3-[(3-chloro-2-methoxyphenyl)amino]-2-[2-[(1,4-dioxan-2-ylmethyl)amino]pyrimidin-4-yl]-1H,5H,6H,7H-pyrrolo[3,2-c]pyridin-4-one]
10 | 6.00 to 7.00 | > 7.00 | 6.00 to 7.00 | 6.00 to 7.00 | COc1c(Cl)cccc1Nc1c(-c2ccnc3[nH]c(=O)c(OC)nc23)[nH]c2c1C(=O)NCC2 [compound 729, 8-(3-((3-chloro-2-methoxyphenyl)amino)-4-oxo-4,5,6,7-tetrahydro-1H-pyrrolo[3,2-c]pyridin-2-yl)-2-methoxypyrido[2,3-b]pyrazin-3 (4H)-one]
11 | > 7.00 | > 7.00 | > 7.00 | > 7.00 | COc1c(Cl)cccc1Nc1c(-c2ccnc3ccc(OC4CCOCC4)nc23)[nH]c2c1C(=O)NCC2 [compound 740, 3-[(3-chloro-2-methoxyphenyl)amino]-2-[6-(oxan-4-yloxy)-1,5-naphthyridin-4-yl]-1H,5H,6H,7H-pyrrolo[3,2-c]pyridin-4-one]
